From ChEMBL document CHEMBL1153541 (J Med Chem, 2009)
Activity calls are given as the source filed them. The calls are words filed in the database; no cut-off is given here.

Columns and labels:
[1] = Selectivity index, ratio of IC50 for rat L6 cells to IC50 for Leishmania donovani MHOM/SD/62/1S-CL2D axenic amastigotes; type: toxicity, cell-based; details: read-out: Ratio IC50
[2] = Selectivity index, ratio of IC50 for rat L6 cells to IC50 for chloroquine-resistant Plasmodium falciparum K1; type: toxicity, cell-based; details: read-out: Ratio IC50
Leishmania donovani = assay: Antileishmanial activity against Leishmania donovani MHOM/SD/62/1S-CL2D axenic amastigotes after 72 hrs by tetrazolium dye-based microplate reader method; type: functional, organism-based
[3] = Selectivity index, ratio of IC50 for rat L6 cells to IC50 for blood stream form of Trypanosoma brucei rhodesiense STIB900 trypomastigotes; type: toxicity, cell-based; details: read-out: Ratio IC50
Plasmodium falciparum = assay: Antiplasmodial activity after 48 hrs against chloroquine-resistant Plasmodium falciparum K1 by [3H]hypoxanthine uptake; type: functional, organism-based
[4] = test system: Trypanosoma brucei rhodesiense; assay: Antitrypanosomal activity against Trypanosoma brucei rhodesiense STIB900 in mouse model of acute trypanosomiasis assessed as increase in survival time at 20 mg/kg administered daily for 4 days; type: functional, organism-based; design: dose 20 mg/kg
L6 = assay: Cytotoxicity against rat L6 cells after 70 hrs by alamar blue assay; type: cell-based; details: L6, 70 h
[5] = test system: Trypanosoma brucei rhodesiense; assay: Antitrypanosomal activity against Trypanosoma brucei rhodesiense STIB900 in mouse model of acute trypanosomiasis assessed as induction of cure at 20 mg/kg administered daily for 4 days; type: functional, organism-based; design: dose 20 mg/kg
[6] = test system: Trypanosoma brucei rhodesiense; assay: Antitrypanosomal activity against blood stream form of Trypanosoma brucei rhodesiense STIB900 trypomastigotes after 70 hrs by alamar blue assay; type: functional, organism-based; details: STIB900, 70 h
[7] = test system: Trypanosoma brucei rhodesiense; assay: Ratio of pentamidine IC50 to compound IC50 for blood stream form of Trypanosoma brucei rhodesiense STIB900 trypomastigotes; type: functional

Compound: c1ccc(OCCCCCCOc2cccc(-c3cc4cc(C5=NCCN5)ccc4o3)c2)cc1
- selectivity ratio [1]: 1
- selectivity ratio [2]: 51
- IC50 (Leishmania donovani): 1900 nM
- selectivity ratio [3]: 26
- IC50 (Plasmodium falciparum): 49 nM

Compound: N=C(N)c1ccc(OCCCOc2ccc(-c3cc4ccc(C(=N)N)cc4o3)cc2)cc1
- Activity [4]: Active
- IC50 (Leishmania donovani): 780 nM
- IC50 (L6): 8600 nM
- Activity [5]: inactive
- IC50 [6]: 25 nM
- Ratio IC50 [7]: 8

Compound: CC(C)NC(=N)c1ccc2oc(-c3cccc(OCCCCCCOc4ccccc4)c3)cc2c1
- selectivity ratio [1]: 1
- selectivity ratio [2]: 40
- IC50 (Leishmania donovani): 7000 nM
- IC50 (L6): 7400 nM
- selectivity ratio [3]: 6
- IC50 [6]: 1160 nM
- IC50 (Plasmodium falciparum): 183 nM
